Assay results: patent publication EP2927230A1, “PENTAMETHINIUM SALTS WITH AN EXPANDED QUINOXALINE UNIT AND ITS USE IN ANTICANCER THERAPY” (University of Chemistry and Technology - Prague, priority 2014, dated 2015)

Tests used:
[1] = tested on: 4T1(mouse mammary gland carcinoma); experiment: Cytotoxicity (MTT) assay; assay type: cell-based; details: 4T1 cell line
Experimental: (§1) Cells were seeded into 96-well microtitre plates to the expected target cell density (2,500-30,000 cells-well^-1, according to the particular cell line). The inoculant were pre-incubated to stabilize for 24 h (at 37°C and 5 % CO^2). Fourfold dilutions (0-200 µmol·L^-1; in triplicates) of the tested compound 1 were added to the microtitre plate wells at time zero. The cells were treated with compound 1 for 72 h under standard cultivation conditions. Then, the cells were assayed using MTT for 4 h. Produced formazan, arisen by mitochondrial reduction of MTT, was dissolved in 10 % aqueous solution of sodium dodecyl sulphate (pH 5.5; 100 µL·well^-1, hole diameter is 6.54 mm) followed by overnight incubation. […] The absorption of the produced formazan was measured at 540 nm using Labsystem iEMS Reader MF. The tumor cell inhibitory concentration (IC) of compound 1 was calculated using the following equation: IC = (ODdrug / mean ODcontrol) · 100 %. The IC50 (Table 1) value (drug concentration being lethal for 50 % of the cells) was calculated from appropriate dose-response curves. (Noskova, V.; Dz ? ubak, P.; Kuzmina, G.; Ludkova, A.; Stehlik, D.; Trojanec, R.; Jano ? akova, A.; Kor ? inkova, G.; Mihal, V.; Hajduch, M. Neoplasma 2002, 49, 418-425. 38. Hajduch, M.; Mihal, V.; Minar ? ik, J.; Faber, E.; ? afarova, M.; Weigl, E.; Antalek, P. Cytotechnology 1996, 19, 243-245)

[2] = tested on: LNCaP (human prostate carcinoma); experiment: Cytotoxicity (MTT) assay; assay type: cell-based; details: LNCaP cell line
Experimental: as §1

[3] = tested on: MCF-7 (breast cancer cells); experiment: Cytotoxicity (MTT) assay; assay type: cell-based; details: MCF-7 cell line
Experimental: as §1

[4] = tested on: MDA-MB-231 (human breast carcinoma); experiment: Cytotoxicity (MTT) assay; assay type: cell-based; details: MDA-MB-231 cell line
Experimental: as §1

[5] = tested on: MiaPaCa-2 (human pancreatic carcinoma); experiment: Cytotoxicity (MTT) assay; assay type: cell-based; details: MiaPaCa-2 cell line
Experimental: as §1

[6] = tested on: PE/CA-PJ34 (human basaloid squamous cell carcinoma); experiment: Cytotoxicity (MTT) assay; assay type: cell-based; details: PE/CA-PJ34 cell line
Experimental: as §1

[7] = tested on: U-2 OS (human osteosarcoma); experiment: Cytotoxicity (MTT) assay; assay type: cell-based; details: U-2 OS cell line
Experimental: as §1

[8] = tested on: human breast carcinoma (MDA-MB-231); experiment: Effect on tumor growth in vivo (subcutaneous xenograft); design: species or system Nu/nu mice
Description: Effect of salt 1 on tumor growth in vivo. […] The control group (◆) consisted of untreated mice with a tumor.

SMILES: CCCN1C(=C2C=C(C=Cc3sc4ccccc4[n+]3CCC)c3nc4ccccc4nc32)Sc2ccccc21 [compound 1]
- cytotoxicity [1]: high cytotoxicity
- cytotoxicity [2]: high cytotoxicity
- cytotoxicity [3]: high cytotoxicity
- cytotoxicity [4]: high cytotoxicity
- cytotoxicity [5]: high cytotoxicity
- cytotoxicity [6]: high cytotoxicity
- cytotoxicity [7]: high cytotoxicity
- tumor growth ([8]; Nu/nu mice with MDA-MB-231, after application, for the duration of the experiment (more than 40 days)): practically stopped
- anticancer effect ([8]; Nu/nu mice with human breast carcinoma (MDA-MB-231)): high anticancer effect
- differences in the tumor volume of control mice versus treated mice ([8]; intravenously, 5 mgkg-1, twice a week, * p<0.05, ** p<0.01, n=5 mice per group): Statistically significant differences
